This assay deals with CD2F1 mice, L1210 leukemia ip, survival T/C. The assay is described as follows: NCI In Vivo Anticancer Drug Screen. Data for tumor model L1210 Leukemia (intraperitoneal) in CD2F1 (CDF1) mice. Particulars: higher = longer survival. Summed up: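 Tumor-bearing mice (transplanted tumor) were split into treated and vehicle control groups, and the measured endpoint of each treated group was divided by that of its vehicle controls.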

Setting [1] is: endpoint: mean survival time, dose: 25.0 mg/kg/injection, schedule: Q04DX003 (ip), vehicle: saline.
The mark [2] stands for this setting: endpoint: mean survival time, dose: 50.0 mg/kg/injection, schedule: Q04DX003 (ip), vehicle: saline.
Setting [3] is: endpoint: mean survival time, dose: 100.0 mg/kg/injection, schedule: Q04DX003 (ip), vehicle: saline.
The mark [4] stands for this setting: endpoint: mean survival time, dose: 100.0 mg/kg/injection, schedule: Q04DX002 (ip), vehicle: saline with Tween-80.
[5] abbreviates: endpoint: mean survival time, dose: 100.0 mg/kg/injection, schedule: Q04DX003 (ip), vehicle: saline with Tween-80.
The mark [6] stands for this setting: endpoint: mean survival time, dose: 200.0 mg/kg/injection, schedule: Q04DX003 (ip), vehicle: saline with Tween-80.
The mark [7] stands for this setting: endpoint: mean survival time, dose: 400.0 mg/kg/injection, schedule: Q04DX003 (ip), vehicle: saline with Tween-80.
The mark [8] stands for this setting: endpoint: mean survival time, dose: 100.0 mg/kg/injection, schedule: Q01DX001 (ip), vehicle: saline with Tween-80.
The mark [9] stands for this setting: endpoint: mean survival time, dose: 200.0 mg/kg/injection, schedule: Q01DX001 (ip), vehicle: saline with Tween-80.
[10] abbreviates: endpoint: mean survival time, dose: 400.0 mg/kg/injection, schedule: Q01DX001 (ip), vehicle: saline with Tween-80.
The mark [11] stands for this setting: endpoint: mean survival time, dose: 100.0 mg/kg/injection, schedule: Q01DX001 (ip), vehicle: saline.
[12] abbreviates: endpoint: mean survival time, dose: 200.0 mg/kg/injection, schedule: Q01DX001 (ip), vehicle: saline.
The mark [13] stands for this setting: endpoint: mean survival time, dose: 100.0 mg/kg/injection, schedule: Q04DX003 (ip), vehicle: Klucel (hydroxypropylcellulose) (HPC).

Where “and” joins values, the source holds several entries; their conditions need not be identical. Equal entries are not always repeated. Inconclusive results and toxic doses are left out.

Turning to `[Cl][Pt+2][Cl].[NH-]CC1(C[NH-])CCC1`, the T/C reads like this: (endpoint: mean survival time, dose: 3.12 mg/kg/injection, schedule: Q04DX003 (ip), vehicle: saline) 111 % of control; (endpoint: mean survival time, dose: 12.5 mg/kg/injection, schedule: Q04DX003 (ip), vehicle: saline) 229 % of control; under setting [1], 272 % of control; under setting [2], 174 % of control and 231 % of control; under setting [3], 164 % of control and 335 % of control; (endpoint: mean survival time, dose: 200.0 mg/kg/injection, schedule: Q04DX003 (ip), vehicle: saline) 90 % of control. Also, the T/C is 111 % of control (endpoint: median survival time, dose: 0.1 mg/kg/injection, schedule: Q01DX009 (ip), vehicle: Klucel (hydroxypropylcellulose) (HPC)); 111 % of control (endpoint: median survival time, dose: 0.2 mg/kg/injection, schedule: Q01DX009 (ip), vehicle: Klucel (hydroxypropylcellulose) (HPC)); 239 % of control (endpoint: median survival time, dose: 1.5 mg/kg/injection, schedule: Q01DX009 (ip), vehicle: carboxymethylcellulose (CMC)); 281 % of control (endpoint: median survival time, dose: 3.0 mg/kg/injection, schedule: Q01DX009 (ip), vehicle: carboxymethylcellulose (CMC)); 222 % of control and 320 % of control (endpoint: median survival time, dose: 3.12 mg/kg/injection, schedule: Q01DX009 (ip), vehicle: Klucel (hydroxypropylcellulose) (HPC)); 169 % of control and 206 % of control (endpoint: median survival time, dose: 3.13 mg/kg/injection, schedule: Q01DX009 (ip), vehicle: Klucel (hydroxypropylcellulose) (HPC)). The T/C reads like this: (endpoint: median survival time, dose: 6.0 mg/kg/injection, schedule: Q01DX001 (ip), vehicle: carboxymethylcellulose (CMC)) 171 % of control; (endpoint: median survival time, dose: 8.0 mg/kg/injection, schedule: Q01DX001 (ip), vehicle: other) 186 % of control; (endpoint: median survival time, dose: 9.0 mg/kg/injection, schedule: Q01DX001 (ip), vehicle: carboxymethylcellulose (CMC)) 176 % of control; (endpoint: median survival time, dose: 9.0 mg/kg/injection, schedule: Q01DX009 (ip), vehicle: carboxymethylcellulose (CMC)) 114 % of control; (endpoint: median survival time, dose: 12.0 mg/kg/injection, schedule: Q01DX001 (ip), vehicle: carboxymethylcellulose (CMC)) 203 % of control; (endpoint: median survival time, dose: 12.0 mg/kg/injection, schedule: Q01DX001 (ip), vehicle: other) 212 % of control. Further, the T/C is 203 % of control (endpoint: median survival time, dose: 15.0 mg/kg/injection, schedule: Q01DX001 (ip), vehicle: carboxymethylcellulose (CMC)); 242 % of control (endpoint: median survival time, dose: 16.0 mg/kg/injection, schedule: Q01DX001 (ip), vehicle: other); 103 % of control (endpoint: median survival time, dose: 20.0 mg/kg/injection, schedule: Q01DX001 (ip), vehicle: other).

For `O=C1c2ccccc2C(=O)N1CC(O)COc1ccccc1[N+](=O)[O-]` (centres undefined), the T/C reads like this: under setting [4], 88 % of control; (endpoint: mean survival time, dose: 200.0 mg/kg/injection, schedule: Q04DX002 (ip), vehicle: saline with Tween-80) 100 % of control.

As to `CC(C)(C)/C=C\C=C\C(C)(C)C`, the T/C (endpoint: mean survival time, dose: 50.0 mg/kg/injection, schedule: Q01DX009 (ip), vehicle: saline with Tween-80) was 100 % of control; the T/C (endpoint: mean survival time, dose: 100.0 mg/kg/injection, schedule: Q01DX009 (ip), vehicle: saline with Tween-80) was 103 % of control; the T/C (endpoint: mean survival time, dose: 200.0 mg/kg/injection, schedule: Q01DX009 (ip), vehicle: saline with Tween-80) is 92 % of control.

For `Cc1ccc([N+](=O)[O-])cc1NC(=O)Oc1ccc2c(C)cc(=O)oc2c1`, the T/C (endpoint: mean survival time, dose: 100.0 mg/kg/injection, schedule: Q04DX002 (ip), vehicle: Klucel (hydroxypropylcellulose) (HPC)) is 92 % of control; the T/C (endpoint: mean survival time, dose: 200.0 mg/kg/injection, schedule: Q04DX002 (ip), vehicle: Klucel (hydroxypropylcellulose) (HPC)) is 100 % of control; the T/C (endpoint: mean survival time, dose: 400.0 mg/kg/injection, schedule: Q04DX002 (ip), vehicle: Klucel (hydroxypropylcellulose) (HPC)) was 87 % of control.

On to `Cc1cc2c(-c3ccccc3)c(-c3ccccc3)oc(=O)c2cc1C`, for which the T/C under setting [5] is 95 % of control, the T/C under setting [6] is 90 % of control and the T/C under setting [7] was 92 % of control.

Regarding `CCCCCOc1cc(C(C)=O)cc(OC)c1OC(=O)c1cc([N+](=O)[O-])cc([N+](=O)[O-])c1`, the T/C was 112 % of control under setting [8], 90 % of control under setting [9] and 93 % of control under setting [10].

For `C=CCN1C(=O)C=CC1=O`, the T/C was 95 % of control (endpoint: mean survival time, dose: 25.0 mg/kg/injection, schedule: Q04DX002 (ip), vehicle: saline with Tween-80); 91 % of control (endpoint: mean survival time, dose: 50.0 mg/kg/injection, schedule: Q04DX002 (ip), vehicle: saline with Tween-80); 88 % of control under setting [4].

`NCCN`: the T/C under setting [8] is 106 % of control and the T/C under setting [10] is 97 % of control.

On to `CNc1ccc(C(=O)O)cc1OC`, for which the T/C under setting [5] was 100 % of control, the T/C under setting [6] was 100 % of control and the T/C under setting [7] was 103 % of control.

For `CCCN(CCC)S(=O)(=O)c1ccc(NC(=O)OC2CCCCCCC2)cc1`, the T/C reads like this: under setting [11], 92 % of control; under setting [12], 98 % of control; (endpoint: mean survival time, dose: 400.0 mg/kg/injection, schedule: Q01DX001 (ip), vehicle: saline) 101 % of control.

As to `c1cc[n+](Cc2nc3ccccc3[nH]2)cc1`, the T/C is 97 % of control and 100 % of control (endpoint: mean survival time, dose: 25.0 mg/kg/injection, schedule: Q01DX009 (ip), vehicle: saline); 103 % of control and 100 % of control under setting [1]; 100 % of control (endpoint: mean survival time, dose: 50.0 mg/kg/injection, schedule: Q01DX009 (ip), vehicle: saline); 100 % of control and 106 % of control under setting [2]; 101 % of control and 97 % of control (endpoint: mean survival time, dose: 100.0 mg/kg/injection, schedule: Q01DX009 (ip), vehicle: saline); 97 % of control and 103 % of control under setting [3].

Take `O=C1CC2CCC1C2` (centres undefined): the T/C is 97 % of control (endpoint: mean survival time, dose: 25.0 mg/kg/injection, schedule: Q04DX003 (ip), vehicle: Klucel (hydroxypropylcellulose) (HPC)); 98 % of control (endpoint: mean survival time, dose: 50.0 mg/kg/injection, schedule: Q04DX003 (ip), vehicle: Klucel (hydroxypropylcellulose) (HPC)); 97 % of control under setting [13].

With `COc1cccc(C(=O)O)c1C(=O)O`, the T/C runs as follows: (endpoint: mean survival time, dose: 12.5 mg/kg/injection, schedule: Q01DX005 (ip), vehicle: other) 92 % of control; (endpoint: mean survival time, dose: 25.0 mg/kg/injection, schedule: Q01DX005 (ip), vehicle: other) 92 % of control; (endpoint: mean survival time, dose: 50.0 mg/kg/injection, schedule: Q01DX005 (ip), vehicle: other) 89 % of control; (endpoint: mean survival time, dose: 100.0 mg/kg/injection, schedule: Q01DX005 (ip), vehicle: other) 98 % of control; (endpoint: mean survival time, dose: 200.0 mg/kg/injection, schedule: Q01DX005 (ip), vehicle: other) 101 % of control; (endpoint: mean survival time, dose: 400.0 mg/kg/injection, schedule: Q01DX005 (ip), vehicle: other) 96 % of control.

Turning to `N#Cc1ccc(C(=O)CC(O)(C(F)(F)F)C(F)(F)F)cc1`, the T/C under setting [5] was 101 % of control, the T/C under setting [6] is 101 % of control and the T/C under setting [7] was 98 % of control.

Regarding `COc1c2c(cc3c1C(O)N(C)CC3)OCO2` (centres undefined), the T/C runs as follows: (endpoint: mean survival time, dose: 75.0 mg/kg/injection, schedule: Q01DX001 (ip), vehicle: saline) 100 % of control; (endpoint: mean survival time, dose: 150.0 mg/kg/injection, schedule: Q01DX001 (ip), vehicle: saline) 110 % of control.

In the case of `CNC(=S)NNC(=O)C(=O)NNC(=S)NC`, the T/C under setting [8] was 98 % of control, the T/C under setting [9] was 98 % of control and the T/C under setting [10] was 97 % of control.

As to `CC1(C)OC2C(COC(=O)CI)OC(n3ccc(=O)[nH]c3=O)C2O1` (centres undefined), the T/C reads like this: (endpoint: median survival time, dose: 25.0 mg/kg/injection, schedule: Q01DX005 (ip), vehicle: Klucel (hydroxypropylcellulose) (HPC)) 102 % of control; (endpoint: median survival time, dose: 50.0 mg/kg/injection, schedule: Q01DX005 (ip), vehicle: Klucel (hydroxypropylcellulose) (HPC)) 98 % of control.

With `CCOC(=O)CN(C=O)C1c2ccccc2-c2ccccc21`, the T/C is 99 % of control under setting [5], 92 % of control under setting [6] and 97 % of control under setting [7].

On to `CCOC(=O)CNC(=O)c1ccc(N(CCCl)CCCl)cc1`, for which the T/C under setting [13] is 95 % of control; the T/C (endpoint: mean survival time, dose: 200.0 mg/kg/injection, schedule: Q04DX003 (ip), vehicle: Klucel (hydroxypropylcellulose) (HPC)) was 96 % of control; the T/C (endpoint: mean survival time, dose: 400.0 mg/kg/injection, schedule: Q04DX003 (ip), vehicle: Klucel (hydroxypropylcellulose) (HPC)) was 104 % of control.

Consider `O=C1c2ccccc2C(=O)c2cc(N3C(=O)C=CC3=O)ccc21`, for which the T/C by setting is: under setting [11], 97 % of control; under setting [12], 96 % of control.

The values above are taken from PubChem BioAssay AID256 (DTP/NCI, 2004).
